Data reported in PubChem BioAssay AID256 (DTP/NCI, 2004).
Several values for one entry are separate records, joined by “and”; a condition that tells them apart may be missing. Equal entries are not always repeated. Toxic doses and inconclusive results are not listed. The calls were made as follows: active = survival T/C of 150% or more; inactive = T/C below 125% in these data.

Test system: CD2F1 mice, L1210 leukemia ip, survival T/C
Test: NCI In Vivo Anticancer Drug Screen. Data for tumor model L1210 Leukemia (intraperitoneal) in CD2F1 (CDF1) mice
Conditions: higher = longer survival
Summary of the method: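 Ratio T/C, where T is the treated-group value and C the vehicle-dosed control value, from mice implanted with a transplantable tumor.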

[1] = endpoint: mean survival time, dose: 12.5 mg/kg/injection, schedule: Q04DX003 (ip), vehicle: saline
[2] = endpoint: mean survival time, dose: 100.0 mg/kg/injection, schedule: Q01DX001 (ip), vehicle: saline
[3] = endpoint: mean survival time, dose: 200.0 mg/kg/injection, schedule: Q01DX001 (ip), vehicle: saline
[4] = endpoint: mean survival time, dose: 400.0 mg/kg/injection, schedule: Q01DX001 (ip), vehicle: saline

Measured: T/C

C=C(C)C1CCC2(C(=O)OC)CCC3(C)C(CCC4C5(C)CCC(=O)C(C)(C)C5CCC43C)C12 (stereo not drawn)
inactive: endpoint: mean survival time, dose: 100.0 mg/kg/injection, schedule: Q01DX001 (ip), vehicle: Klucel (hydroxypropylcellulose) (HPC) 96 % of control | endpoint: mean survival time, dose: 200.0 mg/kg/injection, schedule: Q01DX001 (ip), vehicle: Klucel (hydroxypropylcellulose) (HPC) 91 % of control | endpoint: mean survival time, dose: 400.0 mg/kg/injection, schedule: Q01DX001 (ip), vehicle: Klucel (hydroxypropylcellulose) (HPC) 94 % of control

C1CCC(CCC2CCCC[N-]2)[N-]C1.C1CCC(CCC2CCCC[N-]2)[N-]C1.[Ni+2].[O-][Cl+3]([O-])([O-])O (stereo not drawn)
inactive: endpoint: mean survival time, dose: 5.0 mg/kg/injection, schedule: Q01DX009 (ip), vehicle: saline 103 % of control | endpoint: mean survival time, dose: 10.0 mg/kg/injection, schedule: Q01DX009 (ip), vehicle: saline 104 % of control | endpoint: mean survival time, dose: 12.5 mg/kg/injection, schedule: Q01DX001 (ip), vehicle: saline with Tween-80 90 % of control | endpoint: mean survival time, dose: 12.5 mg/kg/injection, schedule: Q04DX002 (ip), vehicle: saline 95 % of control | [1] 104 % of control | endpoint: mean survival time, dose: 20.0 mg/kg/injection, schedule: Q01DX009 (ip), vehicle: saline 103 % of control | endpoint: mean survival time, dose: 25.0 mg/kg/injection, schedule: Q01DX001 (ip), vehicle: saline 102 % of control | endpoint: mean survival time, dose: 25.0 mg/kg/injection, schedule: Q04DX002 (ip), vehicle: saline 98 % of control | endpoint: mean survival time, dose: 25.0 mg/kg/injection, schedule: Q04DX003 (ip), vehicle: saline 108 % of control | endpoint: mean survival time, dose: 40.0 mg/kg/injection, schedule: Q01DX009 (ip), vehicle: saline 109 % of control | endpoint: mean survival time, dose: 50.0 mg/kg/injection, schedule: Q01DX001 (ip), vehicle: saline 102 % of control | endpoint: mean survival time, dose: 50.0 mg/kg/injection, schedule: Q04DX002 (ip), vehicle: saline 98 % of control | endpoint: mean survival time, dose: 50.0 mg/kg/injection, schedule: Q04DX003 (ip), vehicle: saline 102 % of control | endpoint: mean survival time, dose: 75.0 mg/kg/injection, schedule: Q01DX001 (ip), vehicle: saline 101 % of control | [2] 102 % of control | endpoint: mean survival time, dose: 100.0 mg/kg/injection, schedule: Q04DX002 (ip), vehicle: saline 102 % of control | endpoint: mean survival time, dose: 100.0 mg/kg/injection, schedule: Q04DX003 (ip), vehicle: saline 104 % of control

O=[N+]([O-])/C=C/c1cc2ccccc2[nH]1
inactive: endpoint: mean survival time, dose: 100.0 mg/kg/injection, schedule: Q04DX003 (ip), vehicle: acetone 94 % of control | endpoint: mean survival time, dose: 200.0 mg/kg/injection, schedule: Q04DX003 (ip), vehicle: acetone 94 % of control | endpoint: mean survival time, dose: 400.0 mg/kg/injection, schedule: Q04DX003 (ip), vehicle: acetone 105 % of control

CN1C(=S)c2ccccc2S1(=O)=O
inactive: endpoint: mean survival time, dose: 100.0 mg/kg/injection, schedule: Q01DX009 (ip), vehicle: saline 96 % of control | endpoint: mean survival time, dose: 200.0 mg/kg/injection, schedule: Q01DX009 (ip), vehicle: saline 96 % of control | endpoint: mean survival time, dose: 400.0 mg/kg/injection, schedule: Q01DX009 (ip), vehicle: saline 102 % of control

CCOC(=O)c1cnc2c(cnn2CC)c1N1CCN(CCO)CC1
inactive: endpoint: mean survival time, dose: 100.0 mg/kg/injection, schedule: Q04DX003 (ip), vehicle: Klucel (hydroxypropylcellulose) (HPC) 101 % of control

O=C(Nc1cc(Cl)ccc1Cl)c1ccc(C(=O)Nc2cc(Cl)ccc2Cl)cc1
inactive: endpoint: mean survival time, dose: 100.0 mg/kg/injection, schedule: Q01DX009 (ip), vehicle: saline with Tween-80 94 % of control | endpoint: mean survival time, dose: 100.0 mg/kg/injection, schedule: Q04DX003 (ip), vehicle: saline with Tween-80 92 % of control | endpoint: mean survival time, dose: 200.0 mg/kg/injection, schedule: Q01DX009 (ip), vehicle: saline with Tween-80 95 % of control | endpoint: mean survival time, dose: 200.0 mg/kg/injection, schedule: Q04DX003 (ip), vehicle: saline with Tween-80 96 % of control | endpoint: mean survival time, dose: 400.0 mg/kg/injection, schedule: Q01DX009 (ip), vehicle: saline with Tween-80 94 % of control | endpoint: mean survival time, dose: 400.0 mg/kg/injection, schedule: Q04DX003 (ip), vehicle: saline with Tween-80 88 % of control

O=[N+]([O-])CS(=O)(=O)N1CCOCC1
inactive: [2] 103 % of control | [3] 106 % of control | [4] 110 % of control

CCOC(=O)c1ccc(NN=NCCF)cc1
inactive: endpoint: median survival time, dose: 3.12 mg/kg/injection, schedule: Q01DX009 (ip), vehicle: distilled water + Tween-80 114 % of control and 96 % of control | endpoint: median survival time, dose: 3.13 mg/kg/injection, schedule: Q01DX009 (ip), vehicle: distilled water + Tween-80 104 % of control | endpoint: median survival time, dose: 6.25 mg/kg/injection, schedule: Q01DX009 (ip), vehicle: distilled water + Tween-80 122 % of control and 98 % of control (2×) | endpoint: median survival time, dose: 12.5 mg/kg/injection, schedule: Q01DX009 (ip), vehicle: distilled water + Tween-80 92 % of control and 96 % of control | endpoint: median survival time, dose: 50.0 mg/kg/injection, schedule: Q01DX009 (ip), vehicle: distilled water + Tween-80 94 % of control

COc1ccc(NC(=O)Nc2ccccc2C)c(OC)c1
inactive: endpoint: mean survival time, dose: 25.0 mg/kg/injection, schedule: Q04DX002 (ip), vehicle: saline with Tween-80 88 % of control | endpoint: mean survival time, dose: 50.0 mg/kg/injection, schedule: Q04DX002 (ip), vehicle: saline with Tween-80 88 % of control | endpoint: mean survival time, dose: 200.0 mg/kg/injection, schedule: Q04DX002 (ip), vehicle: saline with Tween-80 90 % of control | endpoint: mean survival time, dose: 400.0 mg/kg/injection, schedule: Q04DX002 (ip), vehicle: saline with Tween-80 90 % of control

Cc1nc(/N=C(/N)N(C)C)[nH]c(=O)c1C
inactive: [2] 97 % of control | [3] 103 % of control | [4] 109 % of control

O=S(=O)(O)O.[NH-]C1CCCCC1[NH-].[Pt+2] (stereo not drawn)
inactive: endpoint: mean survival time, dose: 0.04 mg/kg/injection, schedule: Q01DX009 (ip), vehicle: water 109 % of control | endpoint: mean survival time, dose: 0.05 mg/kg/injection, schedule: Q04DX003 (ip), vehicle: water 110 % of control | endpoint: mean survival time, dose: 0.32 mg/kg/injection, schedule: Q01DX001 (ip), vehicle: water 120 % of control | endpoint: mean survival time, dose: 0.63 mg/kg/injection, schedule: Q01DX001 (ip), vehicle: dextrose 124 % of control | endpoint: mean survival time, dose: 0.63 mg/kg/injection, schedule: Q04DX003 (oral), vehicle: water 96 % of control | endpoint: mean survival time, dose: 0.78 mg/kg/injection, schedule: Q04DX003 (ip), vehicle: dextrose 119 % of control | endpoint: mean survival time, dose: 1.2 mg/kg/injection, schedule: Q01DX009 (oral), vehicle: water 100 % of control | endpoint: mean survival time, dose: 1.25 mg/kg/injection, schedule: Q01DX001 (ip), vehicle: dextrose 119 % of control | endpoint: mean survival time, dose: 1.25 mg/kg/injection, schedule: Q01DX001 (oral), vehicle: water 98 % of control | endpoint: mean survival time, dose: 1.25 mg/kg/injection, schedule: Q04DX003 (oral), vehicle: water 98 % of control | endpoint: mean survival time, dose: 1.56 mg/kg/injection, schedule: Q04DX003 (ip), vehicle: saline with Tween-80 100 % of control | endpoint: mean survival time, dose: 2.4 mg/kg/injection, schedule: Q01DX009 (oral), vehicle: water 97 % of control | endpoint: mean survival time, dose: 2.5 mg/kg/injection, schedule: Q01DX001 (ip), vehicle: dextrose 124 % of control | endpoint: mean survival time, dose: 3.12 mg/kg/injection, schedule: Q04DX003 (ip), vehicle: saline with Tween-80 110 % of control | endpoint: mean survival time, dose: 5.0 mg/kg/injection, schedule: Q01DX001 (oral), vehicle: water 100 % of control | endpoint: mean survival time, dose: 10.0 mg/kg/injection, schedule: Q01DX001 (ip), vehicle: dextrose 109 % of control | endpoint: mean survival time, dose: 10.0 mg/kg/injection, schedule: Q04DX003 (oral), vehicle: water 98 % of control | endpoint: mean survival time, dose: 12.5 mg/kg/injection, schedule: Q04DX003 (ip), vehicle: dextrose 110 % of control | [1] 93 % of control | endpoint: mean survival time, dose: 40.0 mg/kg/injection, schedule: Q01DX001 (oral), vehicle: water 109 % of control
